Assay results: DBAASP
Converted amounts (≈) assume the structure as drawn.

Tests used:
Test in all cases: ≥ marks a high value that may be exact or a test limit, other limits are often not marked, values filed in µg/mL are converted to µM
[1] = system: Staphylococcus aureus ATCC 2592
[2] = system: Candida albicans ATCC 2002
[3] = system: Pseudomonas aeruginosa CMCCB 10104
[4] = system: Escherichia coli ATCC 25922
[5] = system: Staphylococcus aureus ATCC 25923
[6] = system: Escherichia coli ATCC 35218
[7] = system: Pseudomonas aeruginosa ATCC 27853
[8] = system: Salmonella enterica serovar Typhimurium
[9] = system: Pseudomonas aeruginosa PAO1
[10] = system: Staphylococcus aureus NCTC 8325
[11] = system: Candida albicans ATCC 90028
Bacillus subtilis = system: Bacillus subtilis
[12] = system: Pseudomonas aeruginosa Ps4
Pseudomonas aeruginosa = system: Pseudomonas aeruginosa
Escherichia coli UB1005 = system: Escherichia coli UB1005
Staphylococcus aureus = system: Staphylococcus aureus
Acinetobacter baumannii = system: Acinetobacter baumannii
Escherichia coli = system: Escherichia coli

CC[C@H](C)[C@H](N)C(=O)N[C@@H](CC(C)C)C(=O)NCC(=O)N1CCC[C@H]1C(=O)N[C@H](C(=O)N[C@@H](CC(C)C)C(=O)N[C@@H](CO)C(=O)N[C@@H](CCSC)C(=O)N[C@H](C(=O)NCC(=O)N[C@@H](CO)C(=O)N[C@@H](C)C(=O)N[C@@H](CC(C)C)C(=O)NCC(=O)NCC(=O)N[C@@H](CC(C)C)C(=O)N[C@H](C(=O)N[C@@H](CCCCN)C(=O)N[C@@H](CCCCN)C(=O)N[C@H](C(N)=O)[C@@H](C)CC)[C@@H](C)CC)C(C)C)C(C)C [ILGPVLSMVGSALGGLIKKI]
MIC [1]: 1.02 µM (≈ 2 µg/mL)
MIC [2]: 1.02 µM (≈ 2 µg/mL)
MIC [3]: 2.03 µM (≈ 4 µg/mL)
MIC [4]: 10.2 µM (≈ 20 µg/mL)

CC[C@H](C)[C@H](NC(C)=O)C(=O)N[C@@H](CC(=O)O)C(=O)NCC(=O)N[C@@H](CC(C)C)C(=O)N[C@@H](CCCCN)C(=O)N[C@@H](C)C(=O)N[C@H](C(=O)N[C@@H](Cc1c[nH]c2ccccc12)C(=O)N[C@@H](CCCCN)C(=O)N[C@@H](CCCCN)C(=O)N[C@H](C(=O)N[C@@H](C)C(=O)N[C@@H](CC(=O)O)C(=O)N[C@@H](CC(C)C)C(=O)N[C@@H](CC(C)C)C(=O)N[C@@H](CCCCN)C(=O)N[C@@H](CC(N)=O)C(=O)N[C@H](C(N)=O)[C@@H](C)O)C(C)C)[C@@H](C)CC [IDGLKAIWKKVADLLKNT]
MIC [5]: > 72.5 µM
MIC [6]: 9 µM (≈ 18.6 µg/mL)
MIC [7]: 72.5 µM (≈ 150 µg/mL)

CC[C@H](C)[C@H](NC(=O)[C@H](CCCN=C(N)N)NC(=O)[C@H](Cc1c[nH]c2ccccc12)NC(=O)[C@H](CCC(N)=O)NC(=O)[C@@H](N)C(C)C)C(=O)N[C@@H](CCCN=C(N)N)C(=O)N[C@H](C(=O)N[C@@H](CS)C(=O)N[C@H](C(=O)N[C@H](C(=O)N[C@@H](CCCN=C(N)N)C(=O)N[C@@H](C)C(=O)O)[C@@H](C)CC)C(C)C)C(C)C [VQWRIRVCVIRA]
MIC [5]: 21.3 µM (≈ 32 µg/mL)
MIC [8]: 21.3 µM (≈ 32 µg/mL)
MIC [9]: 21.3 µM (≈ 32 µg/mL)
MIC [4]: 21.3 µM (≈ 32 µg/mL)

CC[C@H](C)[C@H](N)C(=O)N[C@@H](CC(N)=O)C(=O)N[C@@H](Cc1c[nH]c2ccccc12)C(=O)N[C@@H](CCCCN)C(=O)NCC(=O)N[C@H](C(=O)N[C@@H](C)C(=O)N[C@@H](C)C(=O)N[C@@H](CCSC)C(=O)N[C@@H](CCCCN)C(=O)N[C@@H](CCCCN)C(=O)N[C@@H](CC(C)C)C(=O)N[C@@H](CC(C)C)C(N)=O)[C@@H](C)CC [INWKGIAAMKKLL]
MIC [1]: 2.49 µM (≈ 3.7 µg/mL)
MIC [2]: 5.05 µM (≈ 7.5 µg/mL)
MIC [4]: 10.1 µM (≈ 15 µg/mL)

CC[C@H](C)[C@H](NC(=O)[C@H](C)NC(=O)[C@H](CO)NC(=O)[C@H](CC(C)C)NC(=O)[C@@H](N)Cc1ccccc1)C(=O)N[C@H](C(=O)N[C@@H](CO)C(=O)N[C@@H](CC(C)C)C(=O)N[C@@H](CC(C)C)C(=O)NCC(=O)N[C@@H](CCCCN)C(=O)N[C@@H](CC(C)C)C(=O)N[C@@H](CC(C)C)C(N)=O)[C@@H](C)O [FLSAITSLLGKLL]
MIC [10]: 6 µM (≈ 8.25 µg/mL)

CC[C@H](C)[C@H](NC(=O)[C@H](CO)NC(=O)CNC(=O)[C@@H](NC(=O)[C@@H](N)C(C)C)[C@@H](C)CC)C(=O)N[C@@H](CC(C)C)C(=O)NCC(=O)N[C@@H](C)C(=O)N[C@@H](CC(C)C)C(=O)N[C@@H](C)C(=O)N[C@@H](CO)C(=O)NCC(=O)N[C@@H](CC(C)C)C(=O)N1CCC[C@H]1C(=O)N[C@H](C(=O)N[C@@H](CC(C)C)C(=O)N[C@H](C(=O)N[C@@H](CO)C(=O)N[C@@H](Cc1c[nH]c2ccccc12)C(=O)N[C@H](C(=O)N[C@@H](CCCCN)C(=O)N[C@@H](CC(N)=O)C(=O)N[C@@H](CCCN=C(N)N)C(N)=O)[C@@H](C)CC)[C@@H](C)CC)[C@@H](C)O [VIGSILGALASGLPTLISWIKNR]
MIC [10]: 6 µM (≈ 14.3 µg/mL)
MIC [11]: 25 µM (≈ 59.5 µg/mL)
MIC [4]: 25 µM (≈ 59.5 µg/mL)

CC[C@H](C)[C@H](N)C(=O)N[C@@H](CC(C)C)C(=O)N1CCC[C@H]1C(=O)N[C@@H](CC(C)C)C(=O)N[C@@H](CC(C)C)C(=O)N[C@@H](CC(C)C)C(=O)NCC(=O)N[C@@H](CCCCN)C(=O)N[C@H](C(=O)N[C@H](C(=O)N[C@H]1CSSC[C@@H](C(=O)O)NC(=O)[C@H](CCCCN)NC(=O)[C@H](CCCCN)NC(=O)[C@H]([C@@H](C)O)NC(=O)[C@H]([C@@H](C)CC)NC(=O)[C@H](C)NC1=O)C(C)C)C(C)C [ILPLLLGKVVCAITKKC]
MIC [10]: 7 µM (≈ 12.7 µg/mL)
MIC [4]: 30 µM (≈ 54.3 µg/mL)

CC[C@H](C)[C@H](NC(=O)[C@H](CCCCN)NC(=O)CNC(=O)[C@H](CC(C)C)NC(=O)[C@H](CC(C)C)NC(=O)[C@H](CO)NC(=O)[C@H](C)NC(=O)[C@H](CC(C)C)NC(=O)[C@H](CC(C)C)NC(=O)CNC(=O)CNC(=O)[C@H](CC(C)C)NC(=O)[C@@H](N)Cc1ccccc1)C(=O)O [FLGGLLASLLGKI]
MIC [1]: 2.38 µM (≈ 3.1 µg/mL)
MIC [2]: 1.23 µM (≈ 1.6 µg/mL)
MIC (Bacillus subtilis): 2.38 µM (≈ 3.1 µg/mL)
MIC [4]: 19.2 µM (≈ 25 µg/mL)

CC[C@H](C)[C@H](NC(=O)[C@H](CCCN=C(N)N)NC(=O)[C@H](Cc1c[nH]c2ccccc12)NC(=O)[C@@H](NC(=O)[C@H](CCCN=C(N)N)NC(=O)[C@H](Cc1c[nH]c2ccccc12)NC(=O)[C@@H](N)Cc1ccccc1)[C@@H](C)CC)C(=O)N[C@@H](Cc1c[nH]c2ccccc12)C(=O)N[C@@H](CCCN=C(N)N)C(N)=O [FWRIWRIWR]
MIC [12]: ≥ 44.1 µM

CC[C@H](C)[C@H](NC(=O)[C@H](CC(N)=O)NC(=O)[C@H](CCCN=C(N)N)NC(=O)[C@H](CCC(N)=O)NC(=O)[C@H](Cc1c[nH]c2ccccc12)NC(=O)[C@@H](N)Cc1ccccc1)C(=O)N[C@@H](CO)C(=O)N[C@@H](CCCCN)C(=O)N[C@H](C(=O)N[C@@H](CCCN=C(N)N)C(N)=O)C(C)C [FWQRNISKVR]
MIC [12]: ≥ 187 µM

CC[C@H](C)[C@H](N)C(=O)N[C@@H](CC(C)C)C(=O)N1CCC[C@H]1C(=O)N[C@@H](CC(C)C)C(=O)N[C@H](C(=O)NCC(=O)N[C@@H](CC(N)=O)C(=O)N[C@@H](CC(C)C)C(=O)N[C@@H](CC(C)C)C(=O)N[C@@H](CC(N)=O)C(=O)N[C@@H](CC(=O)O)C(=O)N[C@@H](CC(C)C)C(=O)N[C@@H](CC(C)C)C(N)=O)C(C)C [ILPLVGNLLNDLL]
MIC [10]: ≥ 100 µM
MIC [4]: > 100 µM

CC[C@H](C)[C@H](NC(=O)[C@H](Cc1ccccc1)NC(=O)[C@H](CCCCN)NC(=O)[C@H](CCCCN)NC(=O)[C@H](Cc1c[nH]c2ccccc12)NC(=O)[C@@H](N)CCCCN)C(=O)N[C@@H](CCCCN)C(=O)N[C@@H](CO)C(=O)N[C@@H](CC(C)C)C(=O)N[C@H](C(=O)N[C@@H](CCCCN)C(=O)N[C@@H](CO)C(=O)N[C@@H](C)C(=O)N[C@@H](C)C(=O)N[C@@H](CCCCN)C(=O)N[C@H](C(=O)N[C@H](C(=O)N[C@H](C(=O)N[C@@H](CCCCN)C(=O)N[C@H](C(=O)N[C@@H](C)C(=O)N[C@@H](CCCCN)C(=O)N[C@@H](CCCCN)C(=O)N1CCC[C@H]1C(=O)N[C@@H](CC(C)C)C(=O)N[C@H](C(=O)N[C@H](C(N)=O)C(C)C)[C@@H](C)CC)[C@@H](C)O)C(C)C)C(C)C)[C@@H](C)O)[C@@H](C)O [KWKKFIKSLTKSAAKTVVKTAKKPLIV]
MIC (Pseudomonas aeruginosa): 0.93 µM (≈ 2.83 µg/mL)
MIC (Escherichia coli UB1005): 0.329 µM (≈ 1 µg/mL)
MIC [8]: 0.986 µM (≈ 3 µg/mL)
MIC [9]: 1.31 µM (≈ 4 µg/mL)
MIC (Staphylococcus aureus): > 21 µM

CC(C)[C@H](N)C(=O)N[C@@H](CCCCN)C(=O)N[C@@H](CCCN=C(N)N)C(=O)N[C@@H](Cc1ccccc1)C(=O)N[C@@H](CCCCN)C(=O)N[C@@H](CCCCN)C(=O)N[C@@H](Cc1ccccc1)C(=O)N[C@@H](Cc1ccccc1)C(=O)N[C@@H](CCCN=C(N)N)C(=O)N[C@@H](CCCCN)C(=O)N[C@@H](Cc1ccccc1)C(=O)N[C@@H](CCCCN)C(=O)N[C@@H](CCCCN)C(=O)N[C@@H](CO)C(=O)N[C@H](C(N)=O)C(C)C [VKRFKKFFRKFKKSV]
MIC [1]: ≥ 50.7 µM
MIC [2]: 4.75 µM (≈ 9.38 µg/mL)
MIC (Bacillus subtilis): ≥ 50.7 µM
MIC [4]: 19 µM (≈ 37.5 µg/mL)

CC[C@H](C)[C@H](NC(=O)[C@H](CCCN=C(N)N)NC(=O)[C@@H](NC(=O)[C@H](CCCN=C(N)N)NC(=O)[C@H](Cc1c[nH]c2ccccc12)NC(=O)[C@H](CCC(N)=O)NC(=O)[C@@H](N)C(C)C)[C@@H](C)CC)C(=O)N[C@@H](C)C(=O)N[C@H](C(=O)N[C@H](C(=O)N[C@@H](CCCN=C(N)N)C(=O)N[C@@H](C)C(=O)O)[C@@H](C)CC)C(C)C [VQWRIRIAVIRA]
MIC (Acinetobacter baumannii): 21.6 µM (≈ 32 µg/mL)
MIC (Pseudomonas aeruginosa): 30.6 µM (≈ 45.3 µg/mL)
MIC [5]: 5.4 µM (≈ 8 µg/mL)
MIC [8]: 2.7 µM (≈ 4 µg/mL)
MIC (Escherichia coli): 43.2 µM (≈ 64 µg/mL)
MIC [9]: 21.6 µM (≈ 32 µg/mL)
MIC [4]: 5.4 µM (≈ 8 µg/mL)
MIC (Staphylococcus aureus): 15.3 µM (≈ 22.6 µg/mL)

CC[C@H](C)[C@H](NC(=O)[C@H](CC(C)C)NC(=O)[C@H](CC(N)=O)NC(=O)[C@@H](NC(=O)[C@H](CC(C)C)NC(=O)[C@@H](NC(=O)[C@@H]1CCCN1C(=O)[C@H](CC(C)C)NC(=O)[C@@H](N)Cc1ccccc1)[C@@H](C)CC)[C@@H](C)CC)C(=O)N[C@@H](Cc1cnc[nH]1)C(=O)N[C@@H](CCCCN)C(=O)NCC(=O)N[C@@H](CC(C)C)C(=O)N[C@@H](CC(C)C)C(N)=O [FLPILINLIHKGLL]
MIC [10]: ≥ 125 µM
MIC [11]: ≥ 150 µM
MIC [4]: > 150 µM
